Experimental data reported in patent US6071709A, “Nerve growth factor/receptor complex” (The United States of America as represented by the …, priority 1992, dated 2000).

Columns and labels:
p140^prototrk = assay: Affinity crosslinking of 125I-NGF to gp140trk with HSAB and immunoprecipitation; type: binding, rat; conditions: 0.5 nM 125I-NGF, 2 hr at 4° C., PC12 and rtrk-3T3 cells
From the text: FIG. 5 depicts the affinity crosslinking of NGF to gp140trk on PC12 cells and rtrk 3T3 cells. trk receptors were labeled by cross-linking of ^125 I-NGF to cultured cells using HSAB. The cell lines analyzed were PC12 cells (lanes 1-4), rtrk 3T3 cells (lanes 5-9), NIH-3T3 cells (lanes 10-11) and A875 human […] cells (lanes 13-15). Lysates from cells were immunoprecipitated with anti-NGF (lanes 1, 5, 9-14), gp140trk antibody 7-4 which is another trk antibody generated in bacteria against the gp70trk oncogene (7-4), (Martin-Zanca et al., (1989)) (lanes 2 and 6), or gp140trk antibody 43-4 in the absence (lanes […] and 15) or presence (lanes 4 and 8) of 10 μg/ml competing trk peptide. Crosslinking was performed in the presence of excess unlabeled NGF ([…]) in lanes 9, 11, and 14. The antibody 7-4 immunoprecipitates 3-5 fold less gp140 trk than does antibody 43-4. […]
^125 I-NGF was prepared by lactoperoxidase treatment to specific activities of 2500-3500 cpm/fmole. […] After washing in 50 mM lysine in phosphate buffered saline, cells were lysed in buffer containing 1% NP40 and the lysates immunoprecipitated and analyzed on 7.5% SDS-PAGE as described (Kaplan et al., (1990)).
To determine if NGF was capable of binding to p140^prototrk, several cell lines were analyzed for the ability of trk-specific antisera to precipitate receptor-ligand complexes in affinity crosslinking experiments (FIG. 5). […]

trk transcripts = assay: Northern transfer analysis of trk transcripts in PC12 cells with or without NGF; type: cell-based, rat; conditions: 50 ng/ml NGF, 48 hr
Procedure: RNA preparation and Northern transfer analysis was performed as described (Martin-Zanca et al., (1990a)). Cells were treated with 50 ng/ml NGF(+) (Boehringer Mannheim Biochemicals) and were harvested 48 hr later after differentiation had occurred. 20 μg of total RNA was loaded per lane, and the filter was hybridized with a trk (Martin-Zanca et al., (1990)) or trkB (Klein et al., (1990a)) specific probe.
The trk gene is a member of a gene family of TK receptors that includes the related gene trkb. To determine if trk is transcribed in PC12 cells, the expression of trk transcripts was assayed by Northern transfer analysis with a full-length trk cDNA probe (R. Klein et al., (1990a)). PC12 cells contained trk transcripts (FIG. 7). The level of trk transcripts was not affected by the addition of NGF. To determine whether additional trk-related genes were transcribed in PC12 cells, mRNA was hybridized at low stringency with the highly conserved trk TK domain. trk transcripts have been found in LA-N-5 cells, Sy5y cells and DRG from 13.5 day or 14.5 day embryonic mice.

trk = assay: Growth factor stimulation of trk transfected 3T3 cells (pJM7-23), COS cell supernatants, Ptyr blot; type: cell-based; conditions: trk-expressing 3T3 cells (pJM7-23), 100 μl/ml NGF-COS cell supernatant, 10 minutes at 37° C.
Procedure: To study growth factor stimulation in cells transfected with trkB, NIH 3T3 trk transfected 3T3 (pJM7-23), trkB transfected 3T3 cells (pJM8-3) and non-transfected 3T3 cells (control cells) were exposed to media or media containing 100 μl/ml of NGF-COS cell supernatant, 100 μl/ml NT-3 COS cell supernatant, 5 μl/ml human platelet extract, or 50 μl/ml human platelet extract, for 10 minutes at 37° C. The plates were rinsed, lysed, and the trk or trkB was immunoprecipitated with rabbit antisera 443 and protein A Sepharose in the presence or absence of 10 μg/ml blocking peptide. After washing, the beads were denatured in sample buffer, the proteins were separated on a 7.5% gel and transferred to nitrocellulose. The blots were blocked with 2% BSA and probed with an antiphosphotyrosine monoclonal antibody (4G10). After binding of alkaline phosphate-conjugatedrabbit-anti-mouse antibody, the blots were washed and developed with BCIP and NBT.

Chain of p140^prototrk (P35739 148-395 limits assumed): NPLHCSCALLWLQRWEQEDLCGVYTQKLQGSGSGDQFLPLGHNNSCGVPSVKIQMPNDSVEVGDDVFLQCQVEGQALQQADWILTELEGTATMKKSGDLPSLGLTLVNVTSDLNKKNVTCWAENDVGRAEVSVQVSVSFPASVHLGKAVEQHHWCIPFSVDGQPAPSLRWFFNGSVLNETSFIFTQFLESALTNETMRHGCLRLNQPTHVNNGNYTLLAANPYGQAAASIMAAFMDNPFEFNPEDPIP

## NGF: neurotrophic polypeptide factor, nerve growth factor; ligand of trk proto-oncogene receptor
p140^prototrk
  binding to p140^prototrk (160 kDa crosslinked species): binds
Trk transcripts
  level of trk transcripts: not affected
trk
  stimulation of trk tyrosine phosphorylation: stimulated
